Experimental data taken from patent US20070254312A1, “Protein Kinase Inhibitors and Methods for Identiying Same” (priority 2004, published 2007).
Starred links: 1 amine or outer side, 2 acyl side, 3 side chain; linkers in the order of their positions; H or OH if unused. Non-standard residues stand in square brackets, D forms with d. Residues, ends and D or L forms follow the SMILES beside them. *: point of attachment. Benzoyl(4-(pyrrol-1-yl)) = O=C(c1ccc(-n2cccc2)cc1)*; Phenylacetyl(3,4-Cl2) = O=C(Cc1ccc(Cl)c(Cl)c1)*; Cysteamide = C(CS[*:3])N[*:1]; Dap = NC[C@H](N)C(=O)O

Assays:
PKCθ = PKCθ (Homo sapiens, UniProt Q04759); experiment: PKC isoform assay, Example 1; format: biochemical; parameters: purchased Pan Vera
PKCθ, sequence (Q04759 whole entry, canonical isoform): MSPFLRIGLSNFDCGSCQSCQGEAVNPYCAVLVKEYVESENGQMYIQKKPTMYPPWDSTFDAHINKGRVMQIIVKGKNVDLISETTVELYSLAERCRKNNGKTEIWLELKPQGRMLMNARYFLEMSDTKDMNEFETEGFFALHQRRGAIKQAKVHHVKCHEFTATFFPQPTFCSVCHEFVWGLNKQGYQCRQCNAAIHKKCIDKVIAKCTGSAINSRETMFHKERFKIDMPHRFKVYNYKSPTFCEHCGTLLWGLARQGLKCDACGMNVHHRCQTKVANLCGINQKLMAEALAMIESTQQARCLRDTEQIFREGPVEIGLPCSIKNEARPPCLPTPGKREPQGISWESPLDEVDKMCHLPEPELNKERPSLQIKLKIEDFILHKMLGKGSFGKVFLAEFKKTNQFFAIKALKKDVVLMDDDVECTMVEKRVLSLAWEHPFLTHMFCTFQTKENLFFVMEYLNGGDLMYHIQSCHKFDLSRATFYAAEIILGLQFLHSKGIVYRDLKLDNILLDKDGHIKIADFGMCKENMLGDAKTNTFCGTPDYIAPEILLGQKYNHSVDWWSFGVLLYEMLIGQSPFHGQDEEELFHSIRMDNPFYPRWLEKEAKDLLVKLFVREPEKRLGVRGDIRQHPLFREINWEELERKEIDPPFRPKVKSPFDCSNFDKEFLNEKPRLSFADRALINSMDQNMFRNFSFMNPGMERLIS
Excerpt: (§1) Protein Kinase C Assay (general). The peptides Ac-Ser-Phe-Arg-Arg-Arg-NH2 (for PKC α, β and γ) and acetyl-[…]NH2 (for PKC ε and ζ) were used as substrates.

PKCη = PKCη (Homo sapiens, UniProt P24723); experiment: PKC isoform assay, Example 1; format: biochemical; parameters: purchased Pan Vera
PKCη, sequence (P24723 whole entry, canonical isoform): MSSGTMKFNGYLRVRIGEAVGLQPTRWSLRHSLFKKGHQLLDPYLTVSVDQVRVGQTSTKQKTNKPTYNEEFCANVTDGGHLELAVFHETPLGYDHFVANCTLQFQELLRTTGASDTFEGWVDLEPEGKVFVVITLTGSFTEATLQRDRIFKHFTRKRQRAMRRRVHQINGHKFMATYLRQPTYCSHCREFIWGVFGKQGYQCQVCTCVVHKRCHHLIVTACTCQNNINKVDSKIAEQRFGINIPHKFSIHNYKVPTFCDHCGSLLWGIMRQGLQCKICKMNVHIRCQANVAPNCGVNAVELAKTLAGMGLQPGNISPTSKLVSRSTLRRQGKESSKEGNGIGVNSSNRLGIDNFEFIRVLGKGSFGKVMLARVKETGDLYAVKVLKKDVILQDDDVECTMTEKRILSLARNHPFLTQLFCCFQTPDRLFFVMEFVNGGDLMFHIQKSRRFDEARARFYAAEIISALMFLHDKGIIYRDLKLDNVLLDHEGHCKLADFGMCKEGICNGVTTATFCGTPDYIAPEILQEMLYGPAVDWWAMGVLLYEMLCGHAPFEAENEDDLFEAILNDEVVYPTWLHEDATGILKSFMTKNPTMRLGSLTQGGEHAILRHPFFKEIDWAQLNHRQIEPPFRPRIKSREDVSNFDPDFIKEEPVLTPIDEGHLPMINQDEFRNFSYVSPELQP
Excerpt: as §1

PKCδ = PKCδ (Homo sapiens, UniProt Q05655); experiment: PKC isoform assay, Example 1; format: biochemical; parameters: purchased Pan Vera
PKCδ, sequence (Q05655 whole entry, canonical isoform): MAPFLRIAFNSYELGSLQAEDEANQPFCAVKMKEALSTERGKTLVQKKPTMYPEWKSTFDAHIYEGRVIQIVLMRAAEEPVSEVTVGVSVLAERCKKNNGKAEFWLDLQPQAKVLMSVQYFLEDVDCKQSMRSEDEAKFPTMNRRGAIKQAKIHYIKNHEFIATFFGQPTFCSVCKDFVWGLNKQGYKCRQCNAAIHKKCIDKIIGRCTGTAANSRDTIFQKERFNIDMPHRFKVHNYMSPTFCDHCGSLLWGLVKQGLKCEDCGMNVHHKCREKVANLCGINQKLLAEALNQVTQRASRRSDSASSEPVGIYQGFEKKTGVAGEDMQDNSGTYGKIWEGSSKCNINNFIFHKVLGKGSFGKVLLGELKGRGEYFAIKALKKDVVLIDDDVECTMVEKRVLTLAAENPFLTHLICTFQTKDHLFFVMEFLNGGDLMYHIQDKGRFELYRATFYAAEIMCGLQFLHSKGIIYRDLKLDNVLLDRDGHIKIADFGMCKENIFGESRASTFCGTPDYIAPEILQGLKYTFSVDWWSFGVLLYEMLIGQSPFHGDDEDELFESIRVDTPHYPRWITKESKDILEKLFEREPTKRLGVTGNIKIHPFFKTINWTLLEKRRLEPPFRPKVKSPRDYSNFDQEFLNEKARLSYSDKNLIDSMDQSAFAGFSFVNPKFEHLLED
Excerpt: as §1

PKCε = target: T1, PKCε (Homo sapiens, UniProt Q02156); experiment: PKC isoform assay, Example 1; format: biochemical; parameters: purchased Pan Vera
T1 sequence (Q02156 1-737): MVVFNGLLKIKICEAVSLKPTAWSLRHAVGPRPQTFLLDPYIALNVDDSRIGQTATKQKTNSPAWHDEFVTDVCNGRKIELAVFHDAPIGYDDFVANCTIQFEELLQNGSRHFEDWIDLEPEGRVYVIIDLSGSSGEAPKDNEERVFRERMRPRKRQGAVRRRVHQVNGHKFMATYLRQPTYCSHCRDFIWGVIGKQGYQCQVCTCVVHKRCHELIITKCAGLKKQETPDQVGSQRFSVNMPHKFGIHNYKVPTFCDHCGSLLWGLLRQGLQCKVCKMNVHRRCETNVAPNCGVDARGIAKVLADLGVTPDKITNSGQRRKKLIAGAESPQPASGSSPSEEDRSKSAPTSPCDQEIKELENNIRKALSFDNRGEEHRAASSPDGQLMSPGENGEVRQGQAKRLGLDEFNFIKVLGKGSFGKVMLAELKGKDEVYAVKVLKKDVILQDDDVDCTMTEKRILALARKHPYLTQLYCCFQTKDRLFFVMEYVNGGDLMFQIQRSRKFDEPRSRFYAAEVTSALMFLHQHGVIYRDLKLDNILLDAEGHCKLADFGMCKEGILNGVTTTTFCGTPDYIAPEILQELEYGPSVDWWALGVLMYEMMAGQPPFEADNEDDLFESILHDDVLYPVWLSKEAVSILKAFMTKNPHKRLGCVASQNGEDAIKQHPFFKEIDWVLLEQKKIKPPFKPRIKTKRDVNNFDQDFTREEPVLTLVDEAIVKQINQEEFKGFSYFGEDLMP
Protocol: as §1
(§2) PKCε and ζ Assay (IC50 determinations). […] 10 μL enzyme diluted buffer containing 10 mM HEPES (pH 7.5), 10 mM DTT, BSA(3.8 mg/mL), 10 mM EDTA.4Na.2H2O and PKC (20 ng/μL) were added last to this buffer. Reactions were carried out as described above for the Protein Kinase Cα assay.

PKCζ = target: T2, PKCζ (Homo sapiens, UniProt Q05513); experiment: PKC isoform assay, Example 1; format: biochemical; parameters: purchased Pan Vera
T2 sequence (Q05513 1-592): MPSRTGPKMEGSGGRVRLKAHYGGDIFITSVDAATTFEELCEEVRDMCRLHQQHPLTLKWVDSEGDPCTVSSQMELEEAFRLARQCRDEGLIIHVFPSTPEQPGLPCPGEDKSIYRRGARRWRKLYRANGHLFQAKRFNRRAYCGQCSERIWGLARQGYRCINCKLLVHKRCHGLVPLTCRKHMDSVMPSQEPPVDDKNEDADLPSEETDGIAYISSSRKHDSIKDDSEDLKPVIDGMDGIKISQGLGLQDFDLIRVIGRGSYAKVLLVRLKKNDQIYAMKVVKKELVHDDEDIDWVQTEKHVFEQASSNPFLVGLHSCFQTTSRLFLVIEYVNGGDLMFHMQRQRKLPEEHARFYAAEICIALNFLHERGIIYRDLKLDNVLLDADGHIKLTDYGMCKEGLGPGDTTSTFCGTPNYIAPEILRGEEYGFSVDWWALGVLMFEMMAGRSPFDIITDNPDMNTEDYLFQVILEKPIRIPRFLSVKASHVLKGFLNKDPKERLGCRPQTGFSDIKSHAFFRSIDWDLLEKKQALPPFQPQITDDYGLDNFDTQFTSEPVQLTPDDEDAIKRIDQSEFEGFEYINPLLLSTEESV
Protocol: as §1, §2

PKCα = PKCα (Homo sapiens, UniProt P17252); experiment: Protein Kinase Cα radioactive assay, peptide substrate Ac-Ser-Phe-Arg-Arg-Arg-NH2 (Example 1); format: biochemical; parameters: purchased Pan Vera; conditions: versus variable peptide substrate
Protocol: Protein Kinase C Assay (general). The peptides […] (for PKC α, β and γ) and acetyl-[…] (for PKC ε and ζ) were used as substrates. […] Total reaction volume was 50 μL. […] Following an additional 5 min incubation at ambient temperature, 75 μL from each reaction well was transferred into each well of a Unifilter (P81 cellulose phosphate paper) assay plate and washed four times with 0.1% phosphoric acid in water. […] IC50 values were calculated using GraFit (Erithacus Software Limited) and Ki values were calculated using Enzyme Kinetics, SigmaPlot (SPSS Inc.) […] An analogous protocol was employed for peptide 4 versus variable [[…]]. […] An analogous protocol was employed for peptide 4 versus variable [ATP]. Protein Kinase Cα Assay (Ki determination for peptide 6 versus variable […] substrate). […] The reaction was initiated as described above. […] Following an additional 5 min incubation at ambient temperature, 75 μL from each reaction well was transferred into each well of a Unifilter (P81 cellulose phosphate paper) assay plate and washed four times with 0.1% phosphoric acid in water. […] IC50 values were calculated using GraFit (Erithacus Software Limited) and Ki values were calculated using Enzyme Kinetics, SigmaPlot (SPSS Inc.)

PKCγ = PKCγ (Homo sapiens, UniProt P05129); parameters: purchased Panvera; conditions: literature values; relative to most potently inhibited isoform (=1); cited from earlier work

CC(C)C[C@H](NC(=O)[C@H](C)NC(=O)CNC(=O)[C@H](CCCNC(=N)N)NC(=O)[C@H](CCCNC(=N)N)NC(=O)[C@H](C)NC(=O)Cc1ccc(Cl)c(Cl)c1)C(=O)N[C@@H](CCCNC(=N)N)C(=O)N[C@@H](CNC(=O)c1ccc(-n2cccc2)cc1)C(=O)N[C@@H](C)C(=O)NCCS [Compound 6] ({Phenylacetyl(3,4-Cl2)}-ARRGALR[Dap](Benzoyl(4-(pyrrol-1-yl)))A-Cysteamide)
selectivity for PKCα versus PKCθ (PKCθ): 1210 fold
selectivity for PKCα versus PKCη (PKCη): 1310 fold
selectivity for PKCα versus PKCδ (PKCδ): 2730 fold
selectivity for PKCα versus PKCε (PKCε): 600 fold
selectivity for PKCα versus PKCζ (PKCζ): 640 fold
Ki (PKCα): 0.8 nM
Fold selectivity (IC50), PKC γ (PKCγ): 580 fold
